pEC50: −log10 of the molar value.

Among the data in US12612412B2, “Antiviral heterocyclic compounds” (Enanta Pharmaceuticals, Inc., priority 2021, dated 2026) are EC50 values, retold here.

The first assay relates to genotype A, "Long" strain RSV. The experiment in a line: RSV-A assay (CPE protection in Hep-2 cells, ATPlite readout). Format: cell-based, Human respiratory syncytial virus (HRSV). Particulars: human respiratory syncytial virus, RSV-A Long strain, MOI 0.1, CPE protection, read-out: Human RSV-A (“Long”) EC50. In short, it runs like this:
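ATPlite luminescence (cellular ATP) served as the measure of cell health after 5 days of infection. Hep-2 cells at 8,000 per well received duplicate 2-fold compound dilutions plus virus at MOI 0.1, and EC50 was calculated from CPE protection.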
Consider `COc1cc(C(=O)NCC(O)(c2cc3c(c(-c4cc(F)cc(Cl)c4)n2)OC[C@]3(C)C(N)=O)C(F)(F)F)cc2cn(C3CC3)nc12` (stereo partly shown) [Example 1252], for which the pEC50 was > 6.70.

`COc1cc(C(=O)NC[C@](O)(c2cc3c(c(-c4ccc5c(c4)OC(F)(F)O5)n2)OC[C@]3(C)C(N)=O)C2CC2)cc2sc(C)nc12` [Example 1291]: the pEC50 is > 6.70.

Regarding `COc1cc(C(=O)NC[C@](O)(c2cc3c(c(-c4cc(Cl)c(F)cc4F)n2)OC[C@]3(C)C(N)=O)C2(F)CC2)cc2cc(Br)cnc12` [Example 1113], the pEC50 was > 6.70.

On to `Cc1cc2cc(C(=O)NC[C@](O)(c3cc4c(c(-c5ccc6c(c5)OC(F)(F)O6)n3)OC[C@]4(C)C(N)=O)C3CC3)cc(OC3CC3)c2nc1Cl` [Example 1079], for which the pEC50 was > 6.70.

In the case of `COc1cc(C(=O)NC[C@](O)(c2cc3c(c(-c4cc(F)cc(Cl)c4Cl)n2)OC[C@]3(C)C(N)=O)C2CC2)cc2cn(C3CC3)nc12` [Example 1285], the pEC50 is > 6.70.

As for `C[C@]1(C(N)=O)COc2c1cc([C@@](O)(CNC(=O)c1ccc3nc(C4CC4)sc3c1)C1CC1)nc2-c1ccc2c(c1)OC(F)(F)O2` [Example 1292], the pEC50 is < 6.70.

Consider `[2H]C([2H])([2H])c1nc2c(OC)cc(C(=O)NC[C@](O)(c3cc4c(c(-c5cc(Cl)c(F)cc5F)n3)OC[C@]4(C)C(N)=O)C3CC3)cc2cc1Cl` [Example 1287], for which the pEC50 was > 6.70.

Consider `Cc1cnc2c(OC(F)F)cc(C(=O)NC[C@](O)(c3cc4c(c(-c5cccc(Br)c5F)n3)OC[C@]4(C)C(N)=O)C3CC3)cc2c1` [Example 1206], for which the pEC50 was > 6.70.

Take `COc1cc(C(=O)NC[C@](O)(c2cc3c(c(-c4ccc5c(c4)OC(F)(F)O5)n2)OC[C@]3(C)C(N)=O)C2CC2)cc2cc(Br)c(C)nc12` [Example 1130]: the pEC50 is > 6.70.

`COc1cc(C(=O)NC[C@@](O)(c2cc3c(c(-c4ccc(OC(F)(F)F)cc4)n2)OC[C@]3(C)C(N)=O)C(F)(F)F)cc2cn(C3CC3)nc12` [Example 897]: the pEC50 is < 6.70.

As for `COc1cc(C(=O)NC[C@](O)(c2cc3c(c(-c4cc(F)c(Cl)cc4Cl)n2)OC[C@]3(C)C(N)=O)C(F)(F)F)cc2cn(C3CC3)nc12` [Example 1265], the pEC50 is > 6.70.

For the molecule `COc1cc(C(=O)NC[C@](O)(c2cc3c(c(-c4ccc(Cl)cc4Cl)n2)OC[C@]3(C)C(N)=O)C2CC2)cc2cn(C3CC3)nc12` [Example 1279], the pEC50 is > 6.70.

Consider `COc1cc(C(=O)NC[C@@](O)(c2cc3c(c(-c4ccc5c(c4)OCO5)n2)OC[C@]3(C)C(N)=O)C(F)(F)F)cc2cn(C3CC3)nc12` [Example 907], for which the pEC50 is < 6.70.

`COc1cc(C(=O)NC[C@](O)(c2cc3c(c(-c4ccc(F)c(Cl)c4F)n2)OC[C@]3(C)C(N)=O)C2CC2)cc2cc(Br)c(C)nc12` [Example 1129]: the pEC50 was > 6.70.

Staying with this assay, now noted: human respiratory syncytial virus, genotype A “Long” strain RSV, MOI 0.1, CPE protection, read-out: Human RSV-A (“Long”).
Turning to `C[C@]1(C(N)=O)COc2c1cc([C@@](O)(CNC(=O)c1cc3cc(F)ccc3[nH]1)C(F)(F)F)nc2-c1ccc(F)cc1` [Example 422], the pEC50 was < 6.70.

Turning to `C[C@]1(C(N)=O)COc2c1cc([C@@](O)(CNC(=O)c1c[nH]c3ccccc13)C(F)(F)F)nc2-c1ccc(F)cc1` [Example 352], the pEC50 was < 6.70.

As for `COc1cc(C(=O)NC[C@](O)(c2cc3c(c(-c4ccc(F)cc4)n2)OC[C@]3(C)C(N)=O)C(F)(F)F)cc2cc(C(=O)O)c(C)nc12` [Example 76], the pEC50 is < 6.70.

For the molecule `C[C@]1(C(N)=O)COc2c1cc([C@@](O)(CNC(=O)c1cc(F)c3[nH]c(C4CC4)nc3c1)C(F)(F)F)nc2-c1ccc(F)cc1` [Example 93], the pEC50 was > 6.70.

`C[C@]1(C(N)=O)COc2c1cc([C@@](O)(CNC(=O)c1ccc3ccnn3c1)C(F)(F)F)nc2-c1ccc(F)cc1` [Example 418]: the pEC50 is > 6.70.

For the molecule `C[C@]1(C(N)=O)COc2c1cc([C@@](O)(CNC(=O)c1ccc3[nH]c(C4CC4)cc3c1)C(F)(F)F)nc2-c1ccc(F)cc1` [Example 205], the pEC50 was < 6.70.

As for `C[C@]1(C(N)=O)COc2c1cc([C@@](O)(CNC(=O)c1cnn(-c3ccc(F)cc3)c1)C(F)(F)F)nc2-c1ccc(F)cc1` [Example 451], the pEC50 is < 6.70.

Take `C[C@]1(C(N)=O)COc2c1cc([C@@](O)(CNC(=O)c1cc(OC3CC3)n3nc(C4CC4)cc3c1)C1CC1)nc2-c1ccc(F)cc1` [Example 331]: the pEC50 is > 6.70.

Turning to `C[C@]1(C(N)=O)COc2c1cc([C@@](O)(CNC(=O)c1cn3cc(OC(F)(F)F)ccc3n1)C(F)(F)F)nc2-c1ccc(F)cc1` [Example 814], the pEC50 was < 6.70.

Take `NC(=O)[C@@]1(CF)COc2c1cc([C@@](O)(CNC(=O)c1cc(F)c3nc(N)sc3c1)C(F)(F)F)nc2-c1ccc(F)cc1` [Example 290]: the pEC50 is > 6.70.

`Cc1ncc(C(=O)NC[C@](O)(c2cc3c(c(-c4ccc(F)cc4)n2)OC[C@]3(C)C(N)=O)C(F)(F)F)s1` [Example 431]: the pEC50 was < 6.70.

`COc1cc(C(=O)NC[C@](O)(c2cc3c(c(-c4ccc(F)cc4)n2)OC[C@]3(C(N)=O)C2CC2)C(F)(F)F)cc2cn(C(F)F)nc12` [Example 266]: the pEC50 was < 6.70.

On to `C[C@]1(C(N)=O)COc2c1cc([C@@](O)(CNC(=O)c1cnn3cccc3c1)C(F)(F)F)nc2-c1ccc(F)cc1` [Example 201], for which the pEC50 is < 6.70.

Regarding `COc1cc(C(=O)NC[C@](O)(c2cc3c(c(-c4ccc(F)cc4)n2)OC[C@]3(C)C(N)=O)C(F)(F)F)ccc1OC[C@@H](O)C(F)(F)F` [Example 131], the pEC50 was > 6.70.

For the molecule `COc1cc(C(=O)NC[C@](O)(c2cc3c(c(-c4ccc(F)cc4)n2)OC[C@]3(C)C(N)=O)C(F)(F)F)ccc1OC[C@H](C)O` [Example 133], the pEC50 was > 6.70.

With `C[C@]1(C(N)=O)COc2c1cc([C@@](O)(CNC(=O)c1ccc3oc(N)nc3c1)C(F)(F)F)nc2-c1ccc(F)cc1` [Example 191], the pEC50 was > 6.70.

As for `COc1cc(C(=O)NC[C@](O)(c2cc3c(c(-c4ccc(F)cc4)n2)OC[C@@]3(CF)C(N)=O)C(F)(F)F)cc2cc(C(F)(F)F)cnc12` [Example 286], the pEC50 was > 6.70.

`COc1cc(C(=O)NC[C@](O)(c2cc3c(c(-c4ccc(F)cc4)n2)OCC3(C(N)=O)C(F)F)C(F)(F)F)cc2cccnc12` (stereo partly shown) [Example 254]: the pEC50 was > 6.70.

With `COc1cc(C(=O)NC[C@](O)(c2cc3c(c(-c4ccc(F)cc4)n2)OC[C@]3(CF)C(N)=O)C(F)(F)F)cc2cccnc12` [Example 283], the pEC50 is > 6.70.

With `C[C@]1(C(N)=O)COc2c1cc([C@@](O)(CNC(=O)c1cn3ccccc3n1)C(F)(F)F)nc2-c1ccc(F)cc1` [Example 413], the pEC50 is < 6.70.

With `C[C@]1(C(N)=O)COc2c1cc([C@@](O)(CNC(=O)c1c[nH]c3ncc(F)cc13)C(F)(F)F)nc2-c1ccc(F)cc1` [Example 353], the pEC50 is < 6.70.

For `C[C@]1(C(N)=O)COc2c1cc([C@@](O)(CNC(=O)c1ccc3nnnn3c1)C(F)(F)F)nc2-c1ccc(F)cc1` [Example 110], the pEC50 was < 6.70.

For the molecule `C[C@]1(C(N)=O)COc2c1cc([C@@](O)(CNC(=O)c1cc(Br)c3nc(N)oc3c1)C(F)(F)F)nc2-c1ccc(F)cc1` [Example 203], the pEC50 was > 6.70.

Take `C[C@]1(C(N)=O)COc2c1cc([C@@](O)(CNC(=O)c1nc3ccccc3[nH]1)C(F)(F)F)nc2-c1ccc(F)cc1` [Example 420]: the pEC50 is < 6.70.

On to `C[C@]1(C(N)=O)COc2c1cc([C@@](O)(CNC(=O)c1ccc3nc(NC(=N)N)sc3c1)C(F)(F)F)nc2-c1ccc(F)cc1` [Example 159], for which the pEC50 is > 6.70.

As for `C[C@]1(C(N)=O)COc2c1cc([C@@](O)(CNC(=O)c1ccc3cc(C4CC4)cn3c1)C(F)(F)F)nc2-c1ccc(F)cc1` [Example 185], the pEC50 was < 6.70.

As to `C[C@]1(C(N)=O)COc2c1cc([C@@](O)(CNC(=O)c1cnc(-c3ccccc3F)s1)C(F)(F)F)nc2-c1ccc(F)cc1` [Example 484], the pEC50 is < 6.70.

For `C[C@]1(C(N)=O)COc2c1cc([C@@](O)(CNC(=O)c1cccc3[nH]cnc13)C(F)(F)F)nc2-c1ccc(F)cc1` [Example 429], the pEC50 is < 6.70.

Consider `Cc1cc(C(=O)NC[C@](O)(c2cc3c(c(-c4ccc(F)cc4)n2)OC[C@]3(C)C(N)=O)C(F)(F)F)c2ccccc2n1` [Example 432], for which the pEC50 was < 6.70.

Regarding `C[C@]1(C(N)=O)COc2c1cc([C@@](O)(CNC(=O)c1cnn(-c3ccc(C(F)(F)F)cc3)c1)C(F)(F)F)nc2-c1ccc(F)cc1` [Example 455], the pEC50 was < 6.70.

For the molecule `COc1cc(C(=O)NC[C@](O)(c2cc3c(c(-c4ccc(F)cc4)n2)OCC3(C(N)=O)C(F)F)C(F)(F)F)cn2cc(C3CC3)nc12` (stereo partly shown) [Example 259], the pEC50 was > 6.70.

For `Cc1cccn2cc(C(=O)NC[C@](O)(c3cc4c(c(-c5ccc(F)cc5)n3)OC[C@]4(C)C(N)=O)C(F)(F)F)nc12` [Example 806], the pEC50 is < 6.70.

Take `COc1cc(C(=O)NC[C@](O)(c2cc3c(c(-c4ccc(F)cc4)n2)OC[C@@]3(CF)C(N)=O)C(F)(F)F)cc2cccnc12` [Example 282]: the pEC50 is < 6.70.

Consider `[2H]C([2H])([2H])NC(=O)Nc1cc(C(=O)NC[C@](O)(c2cc3c(c(-c4ccc(F)cc4)n2)OC[C@]3(C)C(N)=O)C(F)(F)F)cc2ccc(C)nc12` [Example 330], for which the pEC50 was < 6.70.

As for `COc1cc(C(=O)NC[C@](O)(c2cc3c(c(-c4ccc(F)cc4)n2)OC[C@]3(C(N)=O)C2CC2)C(F)(F)F)cn2cc(C3CC3)nc12` [Example 273], the pEC50 is < 6.70.

In the case of `C[C@]1(C(N)=O)COc2c1cc([C@@](O)(CNC(=O)c1cnn3cccc3c1Cl)C(F)(F)F)nc2-c1ccc(F)cc1` [Example 198], the pEC50 is < 6.70.

Regarding `C[C@]1(C(N)=O)COc2c1cc([C@@](O)(CNC(=O)c1cc(=O)[nH]c(C3CC3)n1)C(F)(F)F)nc2-c1ccc(F)cc1` [Example 372], the pEC50 is < 6.70.

With `CC(C)Oc1ccc2cc(C(=O)NC[C@](O)(c3cc4c(c(-c5ccc(F)cc5)n3)OC[C@]4(C)C(N)=O)C(F)(F)F)[nH]c2c1` [Example 339], the pEC50 is < 6.70.
